In patent US6300501A, “Histidine-(N-benzyl glycinamide) inhibitors of protein farnesyl transferase” (Warner-Lambert Company, priority 1998, dated 2001):
Read-outs that look alike come from different tables or passages of the source.

Assays:
[1] = system: H61 cells: NIH transformed 3T3 H-ras cells; experiment: Clonogenic assay (6 well plates, soft agar); assay type: cell-based
Method: Clonoaenic Assay (6 well lates)
Sometime previous to setting up an actual test:
1. Make up 1.5% Bacto Agar in Milli-Q water and autoclave.
2. Make up 500 mL 2× DMEM-HG without phenol red by combining the following:
1 bottle DMEM base powder (Sigma D-5030)
Adjust pH to 7.1 with HCL; filter sterilize.
1. Set up makeshift water bath (beaker of water with thermometer, on hot plate) in the hood. Keep water temperature between 37° C. to 43° C.
2. […] 1.5% Bacto Agar for approximately 2 minutes on high, or until completely melted. Then let it cool somewhat before using it. (You can keep it from resolidifying by setting the bottle on the hot plate.) […]
3. Bottom Layer (0.6% agar) Top Layer (0.3% agar)
20% calf serum 20% calf serum
40% Bacto Agar (1.5%) 20% Bacto Agar (1.5%)
Depending on the volume of each layer needed, use either 50 mL conical tubes or 200 mL turnip tubes which can be floated in the "water bath".
4. Add 1 mL of bottom layer agar/medium to each well: deliver 1 mL warm agar/medium to a well; then using the tip of the pipet, spread the agar/medium around to completely cover the bottom. Repeat with next well.
5. Allow the plates to set at room temperature for about 5 minutes until the bottom layer solidifies.
6. Label sterile Falcon 2054 (12×75 mm) tubes and add appropriate volume of drug solutions into them.
7. Aliquot 4 AL of DMSO or drug solution per 1 mL of agar/medium to appropriate tubes; then add the agar/medium/cells to each tube. Always add 1 mL more than will actually be needed. Mix up and down in the pipet (gently); then deliver 1 mL to the center of each well. The upper layer is less viscous, so it will generally spread out over the bottom layer unaided. If necessary, rotate the plane of the plate gently to spread the top layer evenly over the bottom layer.
8. Let plates set for 5 or 10 minutes at room temperature to solidify, then put into 5% CO2, 37° C. incubator.
9. On Day 13, add 0.5 mL of INT (tetrazolium 1 mg/mL in Milli-Q H2 O, filter sterilized) and return plates to incubator.

[2] = target: T1, SF9 affinity purified rat farnesyl protein transferase (Rattus norvegicus, UniProt Q02293+Q04631); experiment: PFT inhibitory activity (radiolabeled farnesyl pyrophosphate, streptavidin bead assay); assay type: biochemical
T1 construct: made in house; host or cells: Sf9 insect cells (baculovirus system inferred from b7)
T1 sequence (Q02293 whole entry, one chain of several): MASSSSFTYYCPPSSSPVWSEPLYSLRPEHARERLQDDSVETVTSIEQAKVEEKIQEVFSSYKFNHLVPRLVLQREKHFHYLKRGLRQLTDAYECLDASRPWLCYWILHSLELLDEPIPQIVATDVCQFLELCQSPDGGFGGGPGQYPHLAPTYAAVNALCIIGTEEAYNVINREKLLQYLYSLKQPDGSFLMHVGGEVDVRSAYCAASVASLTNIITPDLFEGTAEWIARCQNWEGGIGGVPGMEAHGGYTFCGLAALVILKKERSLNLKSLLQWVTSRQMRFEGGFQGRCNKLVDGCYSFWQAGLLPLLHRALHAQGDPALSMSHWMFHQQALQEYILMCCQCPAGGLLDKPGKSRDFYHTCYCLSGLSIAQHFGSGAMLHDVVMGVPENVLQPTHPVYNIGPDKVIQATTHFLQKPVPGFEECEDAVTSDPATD
Method: The protein:farnesyl transferase (PFT) or farnesyl protein transferase (FPT) inhibitory activity of compounds of the present invention were assayed in HEPES buffer (pH 7.4) containing 5 mM potassium phosphate and 20 μM ZnCl2. The solution also contained 5 mM DTT (dithiothreitol), 5 mM MgCl2, and 0.1% PEG 8000. Assays were performed in 96 well plates (Wallec) and employed solutions composed of varying concentrations of a compound of the present invention in 100% DMSO (dimethylsulfoxide). Upon addition of both substrates, radiolabeled farnesyl pyrophosphate ([1^3 H], specific activity 15-30 Ci/mmol, final concentration 134 nM) and (biotinyl)-Ahe-Thr-Lys-Cys-Val-Ile-Met ([3aS[3a alpha, 4 beta, 6a alpha]-hexahydro-2-oxo-1H-thieno[3,4-d]imidazole-5-pentanoic acid]-[7-aminoheptanoic acid]-Thr-Lys-Cys-Val-Ile-Met) (Ahe is 7-aminoheptanoic acid, Thr is threonine, Lys is lysine, Cys is cysteine, Val is valine, Ile is isoleucine and Met is methionine) (final concentration 0.2 μM), the enzyme reaction was started by addition of SF9 affinity purified rat farnesyl protein transferase. After incubation at 30° C. for 30 minutes, the reaction was terminated by diluting the reaction 2.5-fold with a stop buffer containing 1.5 M magnesium acetate, 0.2 M H3 PO4, 0.5% BSA (bovine serum albumin), and strepavidin beads (Amersham) at a concentration of 1.3 mg/mL. After allowing the plate to settle for 30 minutes at room temperature, radioactivity was quantitated on a microBeta counter (Model 1450, Wallec). The assay was also carried out without 5 mM potassium phosphate.

[3] = system: ras farnesylation in ras-transformed cells; experiment: Gel shift assay; assay type: cell-based; settings: for minimal effective concentration: read-out: Gel Shift (μM) MED (minimal effective dose to observe inhibition of ras farnesylation)
Method: Twenty-four hours after planting 2×10^6 ras-transformed cells per treatment condition, the farnesylation inhibitor is added at varying concentrations. Following an 18-hour incubation period, cells are lysed in phosphate-buffered saline containing 1% Triton X-100, 0.5% sodium deoxycholate, and 0.1% SDS (sodium dodecyl sulfate), pH 7.4 in the presence of several protease inhibitors (PMSF (phenylmethylsulfonylfluoride), antipain, leupeptin, pepstatin A, and aprotinin all at 1 μg/mL). Ras protein is immunoprecipitated from the supernatants by the addition of 3 μg v-H-ras Ab-2 (Y13-259 antibody from Oncogene Science). After overnight immunoprecipitation, 30 μL of a 50% protein G-Sepharose slurry (Pharmacia) is added followed by 45-minute incubation. Pellets are resuspended in 2× tris-glycine loading buffer (Novex) containing 5% β-mercaptoethanol and then denatured by 5 minutes boiling prior to electrophoresis on 14% Tris-glycine SDS gels. Using Western transfer techniques, proteins are transferred to nitrocellulose membranes followed by blocking in blocking buffer. Upon overnight incubation with primary antibody (pan-ras Ab-2 from Oncogene Science), an antimouse HRP (horse radish peroxidase) conjugate secondary antibody (Amersham) is employed for detection of the ras protein. Blots are developed using ECL(enhanced chemiluminescence) techniques (Amersham).

[4] = colonies counted after Day 13, read-out: Clonogenic Assay IC50
[5] = HEPES buffer pH 7.4, without 5 mM potassium phosphate, read-out: IC50 (μM) Hepes
[6] = HEPES buffer pH 7.4 containing 5 mM potassium phosphate, read-out: IC50 (μM) 5 mM K3 PO4 -2
[7] = with 5 mM potassium phosphate, average obtained by additional tests, read-out: IC50 (μM) 5 mM K3 PO4 -2, number in parentheses
[8] = without 5 mM potassium phosphate, average obtained by additional tests, read-out: IC50 (μM) Hepes, number in parentheses
[9] = ras-transformed cells, 18-hour incubation
[10] = 312 h, colonies counted after Day 13, read-out: Clonogenic Assay IC50
[11] = average obtained by additional tests, read-out: Clonogenic Assay IC50 (μM), number in parentheses

| Structure (SMILES) | IC50 [1, 4] | IC50 [2, 5] | IC50 [2, 6] | IC50 [2, 7] | IC50 [2, 8] | minimal effective concentration [3, 9] | IC50 [1, 10] | IC50 [1, 11] | Gel Shift (μM) MED, number in parentheses ([3]; average obtained by additional tests) | Gel Shift (μM) MED (minimal effective dose to observe inhibition of ras farnesylation) [3, 9] |
| --- | --- | --- | --- | --- | --- | --- | --- | --- | --- | --- |
| O=C(CN(Cc1ccc(Cl)cc1)C(=O)[C@H](Cc1c[nH]cn1)NC(=O)OCc1ccccc1)NCCOCc1ccccc1 [Example 3] | > 1 µM | 3.1 µM | 0.97 µM | 0.61 µM | 2.8 µM | 0.25 µM |  |  |  |  |
| CC(CNC(=O)CN(Cc1ccc(OCc2ccccc2)cc1)C(=O)[C@H](Cc1c[nH]cn1)NC(=O)OCc1ccccc1)c1ccccc1 (stereo partly drawn) [Example 4, (S)-[1-[(4-Benzyloxy-benzyl)-[(2-phenyl-propyl-carbamoyl)-methyl]-carbamoyl]-2-(1H-imidazole-4-yl)-ethyl]carbamic Acid Benzyl Ester] |  | 5.8 µM | 0.0076 µM | 0.005 µM | 0.15 µM | 0.05 µM | > 1 µM | 0.31 µM |  |  |
| O=C(CN(Cc1ccc(OCc2ccccc2)cc1)C(=O)[C@H](Cc1c[nH]cn1)NC(=O)OCc1ccccc1)NCC(c1ccccc1)c1ccccc1 [Example 5, (S)-[1-[(4-Benzyloxy-benzyl)-[(2,2-diphenyl-ethylcarbamoyl)-methyl]-carbamoyl]-2-(1H-imidazole-4-yl)-ethvl]-carbamic Acid Benzyl Ester] | 0.71 µM | 1.73 µM | 0.038 µM |  | 1.6 µM | 0.2 µM |  | 2.5 µM | 0.05 µM |  |
| CC(CNC(=O)CN(Cc1ccc(OCc2ccccc2)cc1)C(=O)[C@H](Cc1c[nH]cn1)NC(=O)NCc1ccccc1)c1ccccc1 (stereo partly drawn) [Example 6, (S)-N-(4-Benzyloxy-benzyl)-2-(3-benzyl-ureido)-3-(1H-imidazole-4-yl)-N-[(2-phenyl-propylcarbamoyl)-methyl]-propionamide] |  | 0.2 µM | 0.0022 µM | 0.017 µM | 0.5 µM | 0.2 µM | > 1 µM |  |  |  |
| O=C(CN(Cc1ccc(OCc2ccccc2)cc1)C(=O)[C@H](Cc1c[nH]cn1)NC(=O)OCc1ccccc1)NCCc1ccccc1F [Example 7, (S)-[1-((4-Benzyloxy-benzyl)-{[2-(2-fluoro-phenyl)-ethylcarbamoyl]-methyl]-carbamoyl)-2-(1H-imidazole-4-yl)-ethyl]-carbamic Acid Benzyl Ester] |  | 9.8 µM | 0.36 µM |  |  | 0.1 µM | > 1 µM |  |  |  |
| O=C(CN(Cc1ccc(OCc2ccccc2)cc1)C(=O)[C@H](Cc1c[nH]cn1)NC(=O)OCc1ccccc1)NCCc1ccccn1 [Example 8, (S)-[1-{(4-Benzyloxy-benzyl)-[(2-pyridin-2-yl-ethylcarbamoyl)-methyl]-carbamoyl]-2-(1H-imidazole-4-yl)-ethyl]-carbamic Acid Benzyl Ester] |  | 7.8 µM | 0.3 µM |  |  | 0.2 µM | > 1 µM |  |  |  |
| O=C(CN(Cc1ccc(OCc2ccccc2)cc1)C(=O)[C@H](Cc1c[nH]cn1)NC(=O)OCc1ccccc1)NCCc1ccccc1Br [Example 9, (S)-[1-((4-Benzyloxy-benzyl)-{[2-(2-bromo-phenyl)-ethylcarbamoyl]-methyl}-carbamoyl)-2-(1H-imidazole-4-yl)-ethyl]-carbamic Acid Benzyl Ester] |  | 4.5 µM | 0.36 µM |  |  | 0.2 µM | > 1 µM |  |  |  |
| C[C@H](Cc1ccccc1)NC(=O)CN(Cc1ccc(OCc2ccccc2)cc1)C(=O)[C@H](Cc1c[nH]cn1)NC(=O)OCc1ccccc1 [Example 10] | 0.71 µM | 0.58 µM | 0.018 µM |  |  |  |  |  |  | 0.01 to 0.05 µM |
| C[C@@H](Cc1ccccc1)NC(=O)CN(Cc1ccc(OCc2ccccc2)cc1)C(=O)[C@H](Cc1c[nH]cn1)NC(=O)OCc1ccccc1 [Example 11] | > 1 µM | 2.5 µM | 0.082 µM |  |  | 0.2 µM |  |  |  |  |
| O=C(CN(Cc1ccc(OCc2ccccc2)cc1)C(=O)[C@H](Cc1c[nH]cn1)NC(=O)OCc1ccccc1)NCC(c1ccccc1)c1ccccn1 (stereo partly drawn) [Example 12, (S)-[1-{(4-Benzyloxy-benzyl)-[(2-phenyl-2-pyridin-2-yl-ethylcarbamoyl)-methyl]-carbamoyl}-2-(1H-imidazole-4-yl)-ethyl]-carbamic Acid Benzyl Ester] |  | 1.1 µM | 0.062 µM |  |  | 0.2 µM | > 1 µM |  |  |  |
| CC(CNC(=O)CN(Cc1ccc(Cl)cc1)C(=O)[C@H](Cc1c[nH]cn1)NC(=O)OCc1ccccc1)c1ccccc1 (stereo partly drawn) [Example 13, (S)-[1-{(4-Chloro-benzyl)-[(2-phenyl-propylcarbamoyl)-methyl]-carbamoyl}-2-(1H-imidazole-4-yl)-ethyl]-carbamic Acid Benzyl Ester] |  | 1.4 µM | 0.022 µM |  |  | 0.2 µM | > 1 µM |  |  |  |
| O=C(CN(Cc1ccc(OCc2ccccc2)cc1)C(=O)[C@H](Cc1cnc[nH]1)NC(=O)OCc1ccccc1)NCC(O)c1ccccc1 (stereo partly drawn) [Example 14, (S)-[1-{(4-Benzyloxy-benzyl)-[(2-hydroxy-2-phenyl-ethylcarbamoyl)-methyl]-carbamoyl}-2-(3H-imidazole-4-yl)-ethyl]-carbamic Acid Benzyl Ester] |  | 1.6 µM | 0.066 µM |  |  | 0.05 µM | > 1 µM |  |  |  |
| CCC(CNC(=O)CN(Cc1ccc(OCc2ccccc2)cc1)C(=O)[C@H](Cc1c[nH]cn1)NC(=O)OCc1ccccc1)c1ccccc1 (stereo partly drawn) [Example 16, (S)-[1-{(4-Benzyloxy-benzyl)-[(2-phenyl-butylcarbamoyl)-methyl]-carbamoyl}-2-(1H-imidazole-4-yl)-ethyl]-carbamic Acid Benzyl Ester] |  | 0.29 µM | 0.007 µM |  |  | 0.01 to 0.05 µM | 0.4 µM |  |  |  |
| CC(CNC(=O)CN(Cc1ccc(OCc2ccccc2)cc1)C(=O)[C@H](Cc1c[nH]cn1)NC(=O)CCc1ccccc1)c1ccccc1 (stereo partly drawn) [Example 17, (S)-N-(4-Benzyloxy-benzyl)-3-(1H-imidazole-4-yl)-2-(3-phenyl-proponylamino)-N-[(2-phenyl-propylcarbamoyl)-methyl]-propionamide] | > 1 µM | 2.8 µM | 0.086 µM |  |  | 0.2 µM |  |  |  |  |
